From patent US4442044A, “Process for preparing monoesters and diesters of N-alkyl substituted amino methyl phosphonic acid” (priority 1983, dated 1984)

Key:
Experiment in all cases: post-emergent herbicidal activity, greenhouse
Type in all cases: in vivo
Canada Thistle = details: Table I
Procedure, shortened: (§1)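 Post-emergence foliar spray at tabulated application rates, using aliquots of a 1.0% stock in acetone, THF or water plus ~0.4% emulsifier, applied to 2–3-week-old greenhouse plants. Plant injury was rated relative to controls roughly two and four weeks after treatment.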

Cocklebur = test system: Cocklebur
Procedure, shortened: as §1

Hemp Sesbania = details: Table II
Procedure, shortened: as §1

Morningglory = test system: Morningglory
Procedure, shortened: as §1

Panicum Spp = details: Table II
Procedure, shortened: as §1

Velvetleaf = test system: Velvetleaf
Procedure, shortened: as §1

Johnsongrass = details: Table I
Procedure, shortened: as §1

Soybean = details: Table II
Procedure, shortened: as §1

Wheat = details: Table II
Procedure, shortened: as §1

Crabgrass = details: Table II
Procedure, shortened: as §1

Downy Brome = test system: Downy Brome
Procedure, shortened: as §1

Rice = details: Table II
Procedure, shortened: as §1

Smartweed = test system: Smartweed
Procedure, shortened: as §1

Barnyardgrass = test system: Barnyardgrass
Procedure, shortened: as §1

Quackgrass = details: Table I
Procedure, shortened: as §1

Wild Buckwheat = details: Table II
Procedure, shortened: as §1

Sugar Beet = details: Table II
Procedure, shortened: as §1

Lambsquarters = test system: Lambsquarters
Procedure, shortened: as §1

Sorghum = details: Table II
Procedure, shortened: as §1

Yellow Nutsedge = details: Table I
Procedure, shortened: as §1

With CCOC(=O)CNCP(=O)(OC(C)CC(=O)OCC)OC(C)CC(=O)OCC (stereo not drawn) [Example 15, butanoic acid, 3,3'-[[[[(2-ethoxy-2-oxoethyl]amino]methyl]phospinylidene]bis-(oxy)]bis-, diethyl ester] the “post-emergent herbicidal activity index” value (Canada Thistle; 2 WAT, 5.6 kg/h) was 0 (0-24% control), the “post-emergent herbicidal activity index” value (Canada Thistle; 4 WAT, 11.2 kg/h) was 0 (0-24% control) and the “post-emergent herbicidal activity index” value (Cocklebur; Table I, 2 WAT, 5.6 kg/h) was 0 (0-24% control). For the same molecule, the “post-emergent herbicidal activity index” value (Cocklebur; Table I, 4 WAT, 11.2 kg/h) was 1 (25-49% control), the “post-emergent herbicidal activity index” value (Cocklebur; Table II, 2 WAT, 1.12 kg/h) was 0 (0-24% control) and the “post-emergent herbicidal activity index” value (Cocklebur; Table II, 4 WAT, 5.6 kg/h) was 0 (0-24% control). The “post-emergent herbicidal activity index” value (Hemp Sesbania; 2 WAT, 1.12 kg/h) was 0 (0-24% control), the “post-emergent herbicidal activity index” value (Hemp Sesbania; 4 WAT, 5.6 kg/h) was 0 (0-24% control) and the “post-emergent herbicidal activity index” value (Morningglory; Table I, 2 WAT, 5.6 kg/h) was 0 (0-24% control). The “post-emergent herbicidal activity index” value (Morningglory; Table I, 4 WAT, 11.2 kg/h) was 1 (25-49% control), the “post-emergent herbicidal activity index” value (Morningglory; Table II, 2 WAT, 1.12 kg/h) was 0 (0-24% control) and the “post-emergent herbicidal activity index” value (Morningglory; Table II, 4 WAT, 5.6 kg/h) was 1 (25-49% control). For the same molecule, the “post-emergent herbicidal activity index” value (Panicum Spp; 2 WAT, 1.12 kg/h) was 0 (0-24% control), the “post-emergent herbicidal activity index” value (Panicum Spp; 4 WAT, 5.6 kg/h) was 1 (25-49% control) and the “post-emergent herbicidal activity index” value (Velvetleaf; Table I, 2 WAT, 5.6 kg/h) was 0 (0-24% control). The “post-emergent herbicidal activity index” value (Velvetleaf; Table I, 4 WAT, 11.2 kg/h) was 0 (0-24% control), the “post-emergent herbicidal activity index” value (Velvetleaf; Table II, 2 WAT, 1.12 kg/h) was 0 (0-24% control) and the “post-emergent herbicidal activity index” value (Velvetleaf; Table II, 4 WAT, 5.6 kg/h) was 0 (0-24% control). For the same molecule, the “post-emergent herbicidal activity index” value (Johnsongrass; 2 WAT, 5.6 kg/h) was 0 (0-24% control), the “post-emergent herbicidal activity index” value (Johnsongrass; 4 WAT, 11.2 kg/h) was 0 (0-24% control) and the “post-emergent herbicidal activity index” value (Soybean; 2 WAT, 1.12 kg/h) was 0 (0-24% control). The “post-emergent herbicidal activity index” value (Soybean; 4 WAT, 5.6 kg/h) was 1 (25-49% control), the “post-emergent herbicidal activity index” value (Wheat; 2 WAT, 1.12 kg/h) was 0 (0-24% control) and the “post-emergent herbicidal activity index” value (Wheat; 4 WAT, 5.6 kg/h) was 1 (25-49% control). The “post-emergent herbicidal activity index” value (Crabgrass; 2 WAT, 1.12 kg/h) was 0 (0-24% control), the “post-emergent herbicidal activity index” value (Crabgrass; 4 WAT, 5.6 kg/h) was 2 (50-74% control) and the “post-emergent herbicidal activity index” value (Downy Brome; Table I, 2 WAT, 5.6 kg/h) was 0 (0-24% control). For the same molecule, the “post-emergent herbicidal activity index” value (Downy Brome; Table I, 4 WAT, 11.2 kg/h) was 0 (0-24% control), the “post-emergent herbicidal activity index” value (Downy Brome; Table II, 2 WAT, 1.12 kg/h) was 0 (0-24% control) and the “post-emergent herbicidal activity index” value (Downy Brome; Table II, 4 WAT, 5.6 kg/h) was 0 (0-24% control). The “post-emergent herbicidal activity index” value (Rice; 2 WAT, 1.12 kg/h) was 0 (0-24% control), the “post-emergent herbicidal activity index” value (Rice; 4 WAT, 5.6 kg/h) was 0 (0-24% control) and the “post-emergent herbicidal activity index” value (Smartweed; Table I, 2 WAT, 5.6 kg/h) was 0 (0-24% control). The “post-emergent herbicidal activity index” value (Smartweed; Table I, 4 WAT, 11.2 kg/h) was 0 (0-24% control), the “post-emergent herbicidal activity index” value (Smartweed; Table II, 2 WAT, 1.12 kg/h) was 0 (0-24% control) and the “post-emergent herbicidal activity index” value (Smartweed; Table II, 4 WAT, 5.6 kg/h) was 0 (0-24% control). For the same molecule, the “post-emergent herbicidal activity index” value (Barnyardgrass; Table I, 2 WAT, 5.6 kg/h) was 0 (0-24% control), the “post-emergent herbicidal activity index” value (Barnyardgrass; Table I, 4 WAT, 11.2 kg/h) was 3 (75-99% control) and the “post-emergent herbicidal activity index” value (Barnyardgrass; Table II, 2 WAT, 1.12 kg/h) was 0 (0-24% control). For the same molecule, the “post-emergent herbicidal activity index” value (Barnyardgrass; Table II, 4 WAT, 5.6 kg/h) was 0 (0-24% control), the “post-emergent herbicidal activity index” value (Quackgrass; 2 WAT, 5.6 kg/h) was 0 (0-24% control) and the “post-emergent herbicidal activity index” value (Quackgrass; 4 WAT, 11.2 kg/h) was 1 (25-49% control). The “post-emergent herbicidal activity index” value (Wild Buckwheat; 2 WAT, 1.12 kg/h) was 0 (0-24% control), the “post-emergent herbicidal activity index” value (Wild Buckwheat; 4 WAT, 5.6 kg/h) was 0 (0-24% control) and the “post-emergent herbicidal activity index” value (Sugar Beet; 2 WAT, 1.12 kg/h) was 0 (0-24% control). The “post-emergent herbicidal activity index” value (Sugar Beet; 4 WAT, 5.6 kg/h) was 0 (0-24% control), the “post-emergent herbicidal activity index” value (Lambsquarters; Table I, 2 WAT, 5.6 kg/h) was 0 (0-24% control) and the “post-emergent herbicidal activity index” value (Lambsquarters; Table I, 4 WAT, 11.2 kg/h) was 0 (0-24% control). The “post-emergent herbicidal activity index” value (Lambsquarters; Table II, 2 WAT, 1.12 kg/h) was 0 (0-24% control), the “post-emergent herbicidal activity index” value (Lambsquarters; Table II, 4 WAT, 5.6 kg/h) was 1 (25-49% control) and the “post-emergent herbicidal activity index” value (Sorghum; 2 WAT, 1.12 kg/h) was 0 (0-24% control). The “post-emergent herbicidal activity index” value (Sorghum; 4 WAT, 5.6 kg/h) was 0 (0-24% control), the “post-emergent herbicidal activity index” value (Yellow Nutsedge; 2 WAT, 5.6 kg/h) was 0 (0-24% control) and the “post-emergent herbicidal activity index” value (Yellow Nutsedge; 4 WAT, 11.2 kg/h) was 1 (25-49% control).
